Assay results taken from publication PMC7150935 (Toxins, 2020).
Entries after “also recorded” stand apart in the source; their conditions may differ. Like-named read-outs stand apart in the source and are kept apart here. Bridge positions count the residues as written; N and C are the ends. Square brackets hold non-standard residues; d marks the D form. Peptide text beside a SMILES is read from it. pGlu = O=C1CC[C@@H](C(=O)O)N1

Assays:
zebrafish αβδ nAChR [1] = assay type: cell-based, zebrafish (Danio rerio)
zebrafish αβδ nAChR [2] = assay type: cell-based, zebrafish (Danio rerio); remark: listed apart in the source

For `CC[C@H](C)[C@@H]1NC(=O)[C@H](CC(C)C)NC(=O)[C@H](CCCNC(=N)N)NC(=O)[C@H](CC(=O)O)NC(=O)[C@H](CCCNC(=N)N)NC(=O)[C@H](Cc2ccccc2)NC(=O)[C@H](Cc2ccc(O)cc2)NC(=O)[C@H](CC(C)C)NC(=O)[C@@H]2CCCN2C(=O)[C@@H]2CSSC[C@@H](C(=O)O)NC(=O)[C@@H]3CSSC[C@H](NC(=O)[C@H](CCCCN)NC(=O)[C@@H]4CCC(=O)N4)C(=O)N[C@@H](CSSC[C@H](NC1=O)C(=O)N1CCC[C@H]1C(=O)N3)C(=O)N[C@@H](CO)C(=O)NCC(=O)NCC(=O)N[C@@H](CO)C(=O)N2` [αM-MIIIJ] ([pGlu]KCCSGGSCPLYFRDRLICPCC-OH; disulfide 3-21, 4-19, 9-22), which “affinity of αβδ relative to αβδε and αβδγ” value (zebrafish αβδ nAChR [1]) is on record?
Its value is “about a factor of two higher”.

And the koff (zebrafish αβδ nAChR [1])?
The koff was 0.0417 s⁻¹.

What about the “recovery of IACh on washout” value (zebrafish αβδ nAChR [1]) of the same compound?
Its value is “recovered almost completely within a minute”.

What about the reversibility of block (zebrafish αβδ nAChR [1]) of the same compound?
Its reversibility of block is “readily reversible”.

What about the IC50 (zebrafish αβδ nAChR [1]; read-out: IC50) of the same compound?
The IC50 was 33 nM.

What about the IC50 (zebrafish αβδ nAChR [1]; read-out: IC50 (range statement)) of the same compound?
Its IC50 is roughly 50 nM.

What about the “protection against α-BgTX block” value (zebrafish αβδ nAChR [2]) of the same compound?
The value was “largely protected”.

And the “protection against α-EI block” value (zebrafish αβδ nAChR [2])?
The value was “rapidly reversed upon toxin washout; also recorded: completely protected”.
